US20220062205A1, “TREATMENT OF GASTROINTESTINAL DISORDERS AND SYMPTOMS THEREOF” (Indiana University Research and Technology Corporation, priority 2018, published 2022)

Key:
[1] = system: Winnie mice; experiment: Intestinal permeability: FABP1 ELISA in blood sera; format: in vivo, mouse; conditions: day 14; mean±SEM, n=5
Description: The small molecular APE1/Ref-1 antagonist; APX3330, was administered via IP injections in Winnie mice at a dose of 25 mg/kg (30 G needle, max volume 200 μl) dissolved in Cremphore (2%) (Sigma-Aldrich): Ethanol (2%) in sterile water (96%). Mice received alternating IP injections twice a day with 12-hour intervals, over the course of two weeks during predominate intestinal inflammation. Winnie-sham treated mice received vehicle injections excluding APX3330 drugs. All mice were monitored, weighed and faecal pellets were collected over the course of treatment. On day 14, mice were subjected to an overdose of lethobarb (1:16 dilution, 30 G, 100 μl/20 g) IP injections for blood collections prior to harvesting colon tissues. Puncture allowed for a minimal collection of 600 μl of blood via a 26 G needle. Blood was kept on ice for 2 hours, centrifuged at 12×G at 4° C. for 15 minutes were plasma was collected and stored at −20° C. for subsequent ELISA experiments. Quantikine ELISA (mouse/rat FABP1/L-FABP) (Abcam) measured sera levels for fatty acid binding protein (FABP)-1. All samples were repeated in duplicates for statistical value. […] Microplate reader capable of measuring absorbance at 450 nm, with the correction wavelength set at 540 nm was used to detect FABP-1 protein (ng/mL) in blood sera.

[2] = system: Winnie mice; experiment: Clinical symptoms (body weight, rectal prolapse, faecal water content) in Winnie mice treated with APX3330; format: in vivo, mouse; conditions: for Daily Body Weight: mean, SEM in line below, in % (unit assumed)
From the text: In this Example, the murine model of IBD named Winnie, in which spontaneous chronic colitis results from a primary intestinal epithelial defect conferred by a mutation in the Muc2 mucin gene, was used to analyze the symptoms of IBD and the effects of treatment with APX3330. Although other models of chronic intestinal inflammation have been developed (e.g., IL-10 knockout), most of them are environment-dependent (attain inflammation only in the presence of pathogenic bacteria). Further, unlike other models, mild spontaneous inflammation in the colorectum is developed in all Winnie mice by 6 weeks of age (young adults) in pathogen-free conditions; it progresses over time and results in severe colitis by the age of 12-16 weeks. This is due to a thinner mucus layer allowing increased intestinal permeability and thus enhanced susceptibility to luminal toxins normally within the gut. In humans, Muc2 production and secretion are reduced leading to a thinner mucosal layer and increased intestinal permeability. Winnie mice (Win/Win) display symptoms of diarrhoea (not watery), ulcerations, rectal bleeding and pain at the acute stages of colitis similar to those in human IBD. The Winnie murine model of chronic colitis (12 w.o.; 15-35 g; n=24) were attained from Victoria University Werribee Animal Facility (Melbourne, Australia) to determine the effectiveness of APX3330 on mechanisms of oxidative stress. Treated Winnie mice were paralleled to a control C57BL/6 group (12 w.o.; 20-30 g; n=12) inclusive of female and male mice. All mice were acclimatized for 3 days prior to receiving in vivo intraperitoneal (IP) injections. All mice were housed at Western Centre for Health, Research and Education (WCHRE, Melbourne, Victoria, Australia) in a temperature-controlled environment with a 12-hour day/night cycle. All animals had free access to food and water with […] efforts made to minimize any suffering. All experimental procedures in this Example were conducted in agreement to the Australian National Health and Medical Research Council (NHMRC) guidelines and approved by Victorian University Animal Experimentation Ethic Committee (AEEC) under animal ethics AEETH 13/001 and AEC 17/016. The small molecular APE1/Ref-1 antagonist; APX3330, was administered via IP injections in Winnie mice at a dose of 25 mg/kg (30 G needle, max volume 200 μl) dissolved in Cremphore (2%) (Sigma-Aldrich): Ethanol (2%) in sterile water (96%). Mice received alternating IP injections twice a day with 12-hour intervals, over the course of two weeks during predominate intestinal inflammation. Winnie-sham treated mice received vehicle injections excluding APX3330 drugs. All mice were monitored, weighed and faecal pellets were collected over the course of treatment.

## CCCCCCCCCC(=CC1=C(C)C(=O)C(OC)=C(OC)C1=O)C(=O)O [APX3330]
[1]
  FABP1 in blood sera: 0.6 ± 0.2 ng/mL
[2]; Day 1, relative to initial weight, 25 mg/kg IP twice a day
  Daily Body Weight: 102
[2]; Day 2, relative to initial weight, 25 mg/kg IP twice a day
  Daily Body Weight: 100
[2]; Day 3, relative to initial weight, 25 mg/kg IP twice a day
  Daily Body Weight: 101
[2]; Day 4, relative to initial weight, 25 mg/kg IP twice a day
  Daily Body Weight: 101
[2]; Day 5, relative to initial weight, 25 mg/kg IP twice a day
  Daily Body Weight: 100
[2]; Day 6, relative to initial weight, 25 mg/kg IP twice a day
  Daily Body Weight: 100
[2]; Day 7, relative to initial weight, 25 mg/kg IP twice a day
  Daily Body Weight: 98
[2]; Day 8, relative to initial weight, 25 mg/kg IP twice a day
  Daily Body Weight: 98
[2]; Day 9, relative to initial weight, 25 mg/kg IP twice a day
  Daily Body Weight: 98
[2]; Day 10, relative to initial weight, 25 mg/kg IP twice a day
  Daily Body Weight: 99
[2]; Day 11, relative to initial weight, 25 mg/kg IP twice a day
  Daily Body Weight: 99
[2]; Day 12, relative to initial weight, 25 mg/kg IP twice a day
  Daily Body Weight: 99
[2]; Day 13, relative to initial weight, 25 mg/kg IP twice a day
  Daily Body Weight: 99
[2]; by day 14 of treatments, 25 mg/kg IP twice a day
  rectal prolapse, edema and bleeding: reduced
[2]; day 14, 25 mg/kg IP twice a day, mean±SEM, n=7
  faecal water content: 73.2±2.1%
